Where two headings read alike, the source gives them in different places.
Experiments:
[1] = tested on: crabgrass (Digitaria sanguinalis); test: Test C pre/postemergence; format: in vivo; conditions: Digitaria sanguinalis; for pest or weed control at 62 g/ha: 62 g ai/ha; for pest or weed control at 125 g/ha: 125 g ai/ha; for pest or weed control at 250 g/ha: 250 g ai/ha; for pest or weed control at 500 g/ha: 500 g ai/ha
Summary of the method: (§1)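 Percent control is a visual rating (0 none, 100 complete) taken against untreated plants after 12 to 14 days of greenhouse growth. Applications were made preemergence to seeded pots and postemergence to plants at the 1- to 4-leaf stage, in a non-phytotoxic surfactant-containing solvent.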

soybean (Glycine max) = test: Test C pre/postemergence; format: in vivo; conditions: Glycine max; for plant injury at 62 g/ha: 62 g ai/ha; for plant injury at 125 g/ha: 125 g ai/ha; for plant injury at 250 g/ha: 250 g ai/ha; for plant injury at 500 g/ha: 500 g ai/ha
Summary of the method: as §1

[2] = tested on: yellow nutsedge (Cyperus esculentus); test: Test C pre/postemergence; format: in vivo; conditions: Cyperus; for pest or weed control at 62 g/ha: 62 g ai/ha; for pest or weed control at 125 g/ha: 125 g ai/ha; for pest or weed control at 250 g/ha: 250 g ai/ha; for pest or weed control at 500 g/ha: 500 g ai/ha
Summary of the method: as §1

[3] = tested on: Italian ryegrass (Lolium multiflorum); test: Test C postemergence; format: in vivo; conditions: for Plant response rating, Ryegrass, Italian: scale 0 to 100
Summary of the method: as §1

[4] = tested on: blackgrass (Alopecurus myosuroides); test: Test C postemergence; format: in vivo; conditions: for Plant response rating, Blackgrass: scale 0 to 100
Summary of the method: as §1

[5] = tested on: canarygrass (Phalaris minor); test: Test C postemergence; format: in vivo; conditions: for Plant response rating, Canarygrass: scale 0 to 100
Summary of the method: as §1

[6] = tested on: downy brome (Bromus tectorum); test: Test C postemergence; format: in vivo; conditions: for Plant response rating, Bromegrass, Downy: scale 0 to 100
Summary of the method: as §1

[7] = tested on: green foxtail (Setaria viridis); test: Test C postemergence; format: in vivo; conditions: for Plant response rating, Foxtail, Green: scale 0 to 100
Summary of the method: as §1

[8] = tested on: wheat (Triticum aestivum); test: Test C postemergence; format: in vivo; conditions: for Plant response rating, Wheat: scale 0 to 100
Summary of the method: as §1

wild oat (Avena fatua) = test: Test C postemergence; format: in vivo; conditions: for Plant response rating, Oat, Wild: scale 0 to 100
Summary of the method: as §1

[9] = tested on: windgrass (Apera spica-venti); test: Test C postemergence; format: in vivo; conditions: for Plant response rating, Windgrass: scale 0 to 100
Summary of the method: as §1

[10] = tested on: winter barley (Hordeum vulgare); test: Test C postemergence; format: in vivo; conditions: for Plant response rating, Barley: scale 0 to 100
Summary of the method: as §1

[11] = tested on: barnyardgrass (Echinochloa crus-galli); test: Test C flooded paddy test; format: in vivo; conditions: Flood
Summary of the method: (§2)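 Visual injury scores (0 = no effect, 100 = complete control) relative to untreated controls, assessed 12 to 14 days after treatment in the greenhouse. Species in the flooded paddy system—rice, barnyardgrass, duck salad, umbrella sedge—were treated at the 2-leaf stage.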

[12] = tested on: duck salad (Heteranthera limosa); test: Test C flooded paddy test; format: in vivo; conditions: Flood, scale 0 to 100
Summary of the method: as §2

rice (Oryza sativa) = test: Test C flooded paddy test; format: in vivo; conditions: Flood, scale 0 to 100
Summary of the method: as §2

[13] = tested on: umbrella sedge (Cyperus difformis); test: Test C flooded paddy test; format: in vivo; conditions: Flood, scale 0 to 100
Summary of the method: as §2

[14] = post-emergence, Postemergence, scale 0 to 100 (0 no effect, 100 complete control), read-out: Crabgrass plant response rating
[15] = post-emergence, Postemergence, scale 0 to 100, read-out: Plant response rating, Crabgrass
[16] = pre-emergence, Preemergence, scale 0 to 100, read-out: Plant response rating, Crabgrass
[17] = post-emergence, Postemergence, scale 0 to 100 (0 no effect, 100 complete control), read-out: Soybean plant response rating
[18] = post-emergence, Postemergence, scale 0 to 100, read-out: Plant response rating, Soybean
[19] = pre-emergence, Preemergence, scale 0 to 100, read-out: Plant response rating, Soybean
[20] = post-emergence, Postemergence, scale 0 to 100 (0 no effect, 100 complete control), read-out: Nutsedge, Yellow plant response rating
[21] = post-emergence, Postemergence, scale 0 to 100, read-out: Plant response rating, Nutsedge, Yellow
[22] = pre-emergence, Preemergence, scale 0 to 100, read-out: Plant response rating, Nutsedge, Yellow

With `CCOC(=O)c1nc(C2CC2)nc(N)c1Cl` [Compound 4, ethyl 6-amino-5-chloro-2-cyclopropyl-4-pyrimidinecarboxylate] the pest or weed control at 62 g/ha [1, 14] was 70%, the pest or weed control at 125 g/ha [1, 14] was 75% and the pest or weed control at 250 g/ha [1, 15] was 75%. For the same molecule, the pest or weed control at 500 g/ha [1, 15] was 80%, the pest or weed control at 62 g/ha ([1]; pre-emergence, Preemergence, scale 0 to 100, 0 no effect, 100 complete control, read-out: Plant response rating, Crabgrass) was 40% and the pest or weed control at 125 g/ha [1, 16] was 65%. It also gave a pest or weed control at 250 g/ha [1, 16] of 85%, a pest or weed control at 500 g/ha [1, 16] of 95% and a plant injury at 62 g/ha (soybean (Glycine max); [17]) of 100%. It also gave a plant injury at 125 g/ha (soybean (Glycine max); [17]) of 100%, a plant injury at 250 g/ha (soybean (Glycine max); [18]) of 100% and a plant injury at 500 g/ha (soybean (Glycine max); [18]) of 100%. For the same molecule, the plant injury at 62 g/ha (soybean (Glycine max); pre-emergence, Preemergence, scale 0 to 100, 0 no effect, 100 complete control, read-out: Plant response rating, Soybean) was 95%, the plant injury at 125 g/ha (soybean (Glycine max); [19]) was 100% and the plant injury at 250 g/ha (soybean (Glycine max); [19]) was 100%. For the same molecule, the plant injury at 500 g/ha (soybean (Glycine max); [19]) was 100%, the pest or weed control at 62 g/ha [2, 20] was 0% and the pest or weed control at 125 g/ha [2, 20] was 0%. The pest or weed control at 250 g/ha [2, 21] was 0%, the pest or weed control at 500 g/ha [2, 21] was 0% and the pest or weed control at 62 g/ha ([2]; pre-emergence, Preemergence, scale 0 to 100, 0 no effect, 100 complete control, read-out: Plant response rating, Nutsedge, Yellow) was 0%. It also gave a pest or weed control at 125 g/ha [2, 22] of 0%, a pest or weed control at 250 g/ha [2, 22] of 15% and a pest or weed control at 500 g/ha [2, 22] of 80%. For the same molecule, the “Plant response rating, Ryegrass, Italian” value ([3]; 250 g ai/ha) was 65, the “Plant response rating, Ryegrass, Italian” value ([3]; 500 g ai/ha) was 65 and the pest or weed control at 62 g/ha ([3]; Lolium multiflorum, post-emergence, 62 g ai/ha, scale 0 to 100 (0 no effect, 100 complete control), read-out: Ryegrass, Italian plant response rating) was 45%. The pest or weed control at 125 g/ha ([3]; Lolium multiflorum, post-emergence, 125 g ai/ha, scale 0 to 100 (0 no effect, 100 complete control), read-out: Ryegrass, Italian plant response rating) was 60%, the “Plant response rating, Blackgrass” value ([4]; 125 g ai/ha) was 65 and the “Plant response rating, Blackgrass” value ([4]; 250 g ai/ha) was 70. For the same molecule, the “Plant response rating, Blackgrass” value ([4]; 500 g ai/ha) was 70, the pest or weed control at 62 g/ha ([4]; Alopecurus myosuroides, post-emergence, 62 g ai/ha, scale 0 to 100 (0 no effect, 100 complete control), read-out: Blackgrass plant response rating) was 65% and the “Plant response rating, Canarygrass” value ([5]; 125 g ai/ha) was 45. The “Plant response rating, Canarygrass” value ([5]; 250 g ai/ha) was 60, the “Plant response rating, Canarygrass” value ([5]; 500 g ai/ha) was 60 and the pest or weed control at 62 g/ha ([5]; Phalaris minor, post-emergence, 62 g ai/ha, scale 0 to 100 (0 no effect, 100 complete control), read-out: Canarygrass plant response rating) was 35%. The “Plant response rating, Bromegrass, Downy” value ([6]; 125 g ai/ha) was 60, the “Plant response rating, Bromegrass, Downy” value ([6]; 250 g ai/ha) was 65 and the “Plant response rating, Bromegrass, Downy” value ([6]; 500 g ai/ha) was 70. For the same molecule, the pest or weed control at 62 g/ha ([6]; Bromus tectorum, post-emergence, 62 g ai/ha, scale 0 to 100 (0 no effect, 100 complete control), read-out: Bromegrass, Downy plant response rating) was 45%, the “Plant response rating, Foxtail, Green” value ([7]; 250 g ai/ha) was 70 and the “Plant response rating, Foxtail, Green” value ([7]; 500 g ai/ha) was 75. The pest or weed control at 62 g/ha ([7]; Setaria viridis, post-emergence, 62 g ai/ha, scale 0 to 100 (0 no effect, 100 complete control), read-out: Foxtail, Green plant response rating) was 65%, the pest or weed control at 125 g/ha ([7]; Setaria viridis, post-emergence, 125 g ai/ha, scale 0 to 100 (0 no effect, 100 complete control), read-out: Foxtail, Green plant response rating) was 70% and the “Plant response rating, Wheat” value ([8]; 250 g ai/ha) was 65. The “Plant response rating, Wheat” value ([8]; 500 g ai/ha) was 65, the plant injury at 62 g/ha ([8]; Triticum aestivum, post-emergence, 62 g ai/ha, scale 0 to 100 (0 no effect, 100 complete control), read-out: Wheat plant response rating) was 50% and the plant injury at 125 g/ha ([8]; Triticum aestivum, post-emergence, 125 g ai/ha, scale 0 to 100 (0 no effect, 100 complete control), read-out: Wheat plant response rating) was 60%. The “Plant response rating, Oat, Wild” value (wild oat (Avena fatua); 250 g ai/ha) was 70, the “Plant response rating, Oat, Wild” value (wild oat (Avena fatua); 500 g ai/ha) was 70 and the pest or weed control at 62 g/ha (wild oat (Avena fatua); Avena fatua, post-emergence, 62 g ai/ha, scale 0 to 100 (0 no effect, 100 complete control), read-out: Oat, Wild plant response rating) was 60%. The pest or weed control at 125 g/ha (wild oat (Avena fatua); Avena fatua, post-emergence, 125 g ai/ha, scale 0 to 100 (0 no effect, 100 complete control), read-out: Oat, Wild plant response rating) was 65%, the “Plant response rating, Windgrass” value ([9]; 250 g ai/ha) was 70 and the “Plant response rating, Windgrass” value ([9]; 500 g ai/ha) was 75. For the same molecule, the pest or weed control at 62 g/ha ([9]; Apera spica-venti, post-emergence, 62 g ai/ha, scale 0 to 100 (0 no effect, 100 complete control), read-out: Windgrass plant response rating) was 60%, the pest or weed control at 125 g/ha ([9]; Apera spica-venti, post-emergence, 125 g ai/ha, scale 0 to 100 (0 no effect, 100 complete control), read-out: Windgrass plant response rating) was 65% and the “Plant response rating, Barley” value ([10]; 125 g ai/ha) was 65. The “Plant response rating, Barley” value ([10]; 250 g ai/ha) was 65, the “Plant response rating, Barley” value ([10]; 500 g ai/ha) was 65 and the plant injury at 62 g/ha ([10]; Hordeum vulgare, post-emergence, 62 g ai/ha, scale 0 to 100 (0 no effect, 100 complete control), read-out: Barley plant response rating) was 30%. For the same molecule, the “Plant response rating, Barnyardgrass” value ([11]; 62 g ai/ha, scale 0 to 100) was 0, the “Plant response rating, Barnyardgrass” value ([11]; 125 g ai/ha, scale 0 to 100) was 60 and the “Plant response rating, Barnyardgrass” value ([11]; 250 g ai/ha, scale 0 to 100) was 65. For the same molecule, the “Plant response rating, Barnyardgrass” value ([11]; 500 g ai/ha, scale 0 to 100 (0 no effect, 100 complete control)) was 85, the “Plant response rating, Ducksalad” value ([12]; 62 g ai/ha) was 70 and the “Plant response rating, Ducksalad” value ([12]; 125 g ai/ha) was 80. The “Plant response rating, Ducksalad” value ([12]; 250 g ai/ha) was 90, the “Plant response rating, Ducksalad” value ([12]; 500 g ai/ha) was 100 and the “Plant response rating, Rice” value (rice (Oryza sativa); 62 g ai/ha) was 0. For the same molecule, the “Plant response rating, Rice” value (rice (Oryza sativa); 125 g ai/ha) was 40, the “Plant response rating, Rice” value (rice (Oryza sativa); 250 g ai/ha) was 75 and the “Plant response rating, Rice” value (rice (Oryza sativa); 500 g ai/ha) was 80. The “Plant response rating, Sedge, Umbrella” value ([13]; 62 g ai/ha) was 0, the “Plant response rating, Sedge, Umbrella” value ([13]; 125 g ai/ha) was 30 and the “Plant response rating, Sedge, Umbrella” value ([13]; 250 g ai/ha) was 65. The “Plant response rating, Sedge, Umbrella” value ([13]; 500 g ai/ha) was 75 and the melting point was 87 to 89 °C.
